The values that follow come from patent publication US10005767B2, “Compositions and methods for inhibition of the JAK pathway” (Rigel Pharmaceuticals, Inc., priority 2009, dated 2018).

Structures can show the parent of a compound that is named as a salt.

One assay relates to human primary T-cells, IL-2 stimulated proliferation (JAK-1 and JAK-3 dependent; reported as JAK3 activity). Briefly: Human primary T-cell proliferation stimulated by IL-2 (Example 3). It is filed as cell-based. As to conditions: Homo sapiens, T-cell, tested under conditions described in Example 3 (IL-2 stimulated human primary T-cell proliferation); read-out: ability to inhibit JAK3 activity, IC50 range (Table V). The text has this:
The activity of the compounds described herein can further be characterized by assaying the effect of the 2,4-pyrimidinediamine compounds described herein on the proliferative response of primary human T-cells. In this assay, primary human T-cells derived from peripheral blood and pre-activated through stimulation of the T-cell receptor and CD28, proliferate in culture in response to the cytokine Interleukin-2 (IL-2). This proliferative response is dependent on the activation of JAK1 and JAK3 tyrosine kinases, which phosphorylate and activate the transcription factor Stat-5. The primary human T-cells are incubated with the 2,4-pyrimidinediamine compounds in the presence of IL-2 for 72 hours, and at the assay endpoint intracellular ATP concentrations are measured to assess cell viability. A reduction in cell proliferation compared to control conditions is indicative of inhibition of the JAK kinase pathway.
Primary human T-cells derived from peripheral blood and pre-activated through stimulation of the T-cell receptor and CD28, proliferate in vitro in response to the cytokine Interleukin-2 (IL-2). This proliferative response is dependent on the activation of JAK-1 and JAK-3 tyrosine kinases, which phosphorylate and activate the transcription factor Stat-5.
Human primary T cells were prepared as follows. […] The lymphocytes at the serum: ficoll interface were recovered and washed twice with 5 volumes of PBS. […] The primary T-cells were stimulated for 3-4 days, then transferred to a fresh flask and maintained in RPMI with 10% FBS and 40 U/mL IL-2.
The day prior to the assay set up, primary T-cells were centrifuged and resuspended in fresh RPMI with 10% FBS but without IL-2 and starved overnight. For the assay, the primary T-cells were centrifuged and resuspended Yssel's medium at 2×10^6 cells/mL. 50 μL of cell suspension containing 80 U/mL IL-2 was added to each well of a flat bottom 96 well black plate. For the unstimulated control, IL-2 was omitted from the last column on the plate. […] 50 μL of 2× compound was added per well in duplicate and the cells were allowed to proliferate for 72 hours at 37° C.
Proliferation was measured using CellTiter-Glo® Luminescent Cell Viability Assay (Promega), which determines the number of viable cells in culture based on quantitation of the ATP present, as an indicator of metabolically active cells. The substrate was thawed and allowed to come to ambient temperature. After mixing the Cell Titer-Glo reagent and diluent together, 100 μL was added to each well. The plates were mixed on an orbital shaker for two minutes to induce lysis and incubated at ambient temperature for an additional ten minutes to allow the signal to equilibrate.
The compound designations in Table V are consistent with those of Tables I-IV above.
With `Cc1cnc(Nc2ccc(C(=O)Nc3ccccc3)cc2)nc1Nc1ccc2oc(=O)[nH]c2c1` [Compound I-135, 4-[5-Methyl-4-(2-oxo-2,3-dihydro-benzooxazol-5-ylamino)-pyrimidin-2-ylamino]-N-phenyl-benzamide], the IC50 was below 500 nM.

As to `Cc1cnc(Nc2ccc3c(c2)CN(CC(C)C)C3)nc1Nc1ccc2oc(=O)[nH]c2c1` [III-8, N4-(benzo[d]oxazol-2(3H)-on-5-yl)-N2-(2-isobutylisoindolin-5-yl)-5-methylpyrimidine-2,4-diamine], the IC50 was below 500 nM.

For `Cc1cnc(Nc2cc(C)c(C)c(C)c2)nc1Nc1cc(F)c2oc(=O)[nH]c2c1` [Compound I-489, 7-fluoro-5-(5-methyl-2-(3,4,5-trimethylphenylamino)pyrimidin-4-ylamino)benzo[d]oxazol-2(3H)-one], the IC50 was below 500 nM.

As for `Cc1cnc(Nc2c(C)cccc2C)nc1Nc1ccc2oc(=O)[nH]c2c1` [IV-60, 5-(2-(2,6-dimethylphenylamino)-5-methylpyrimidin-4-ylamino)benzo[d]oxazol-2(3H)-one], the IC50 fell in the range of 5000 to 10000 nM.

As to `Cc1cnc(Nc2cc(C)c(C)c(C)c2)nc1Nc1cc(C)c2oc(=O)[nH]c2c1` [Compound I-475, 7-methyl-5-(5-methyl-2-(3,4,5-trimethylphenylamino)pyrimidin-4-ylamino)benzo[d]oxazol-2(3H)-one], the IC50 was below 500 nM.

As for `Cc1cnc(Nc2ccc(C(=O)NC3CCC3)cc2)nc1Nc1ccc2oc(=O)[nH]c2c1` [Compound I-138, N-Cyclobutyl-4-[5-methyl-4-(2-oxo-2,3-dihydro-benzooxazol-5-ylamino)-pyrimidin-2-ylamino]-benzamide formic acid salt], the IC50 was below 500 nM.

Consider `Cc1cnc(Nc2ccc3c(c2)OC(C)(C)O3)nc1Nc1ccc2oc(=O)[nH]c2c1` [IV-17, 5-[2-(2,2-Dimethyl-benzo[1,3]dioxol-5-ylamino)-5-methyl-pyrimidin-4-ylamino]-3H-benzooxazol-2-one], for which the IC50 is below 500 nM.

For the molecule `Cc1cnc(Nc2ccc(C(C)NC3CC3)cc2)nc1Nc1ccc2oc(=O)[nH]c2c1` (stereo not drawn) [Compound I-202, 5-(2-(4-(1-(cyclopropylamino)ethyl)phenylamino)-5-methylpyrimidin-4-ylamino)benzo[d]oxazol-2(3H)-one], the IC50 is below 500 nM.

`COc1c(F)ccc(Nc2ncc(C)c(Nc3cc(F)c4oc(=O)[nH]c4c3)n2)c1F` [Compound I-508, 5-(2-(2,4-difluoro-3-methoxyphenylamino)-5-methylpyrimidin-4-ylamino)-7-fluorobenzo[d]oxazol-2(3H)-one]: the 50% inhibitory concentration (IC50) is below 500 nM.

As to `Cc1cnc(Nc2ccc(C(=O)N3CCN(CC4CC4)CC3)nc2)nc1Nc1ccc2oc(=O)[nH]c2c1` [II-46, 5-{2-[6-(4-Cyclopropylmethyl-piperazine-1-carbonyl)-pyridin-3-ylamino]-5-methyl-pyrimidin-4-ylamino}-3H-benzooxazol-2-one], the IC50 was in the range of 500 to 5000 nM.

Regarding `CCNC(=O)c1ccc(Nc2ncc(C)c(Nc3ccc4oc(=O)[nH]c4c3)n2)cc1C` [Compound I-171, N-Ethyl-2-methyl-4-[5-methyl-4-(2-oxo-2,3-dihydro-benzooxazol-5-ylamino)-pyrimidin-2-ylamino]-benzamide], the IC50 was below 500 nM.

For `Cc1cnc(Nc2cc(OCC3CC3)cc(C(F)(F)F)c2)nc1Nc1ccc2oc(=O)[nH]c2c1` [Compound I-225, 5-(2-(3-(cyclopropylmethoxy)-5-(trifluoromethyl)phenylamino)-5-methylpyrimidin-4-ylamino)benzo[d]oxazol-2(3H)-one], the IC50 is 500 to 5000 nM.

`Cc1cnc(Nc2ccc(-c3ccc(Cl)nc3)cc2)nc1Nc1ccc2oc(=O)[nH]c2c1` [Compound I-509, 5-(2-(4-(6-chloropyridin-3-yl)phenylamino)-5-methylpyrimidin-4-ylamino)benzo[d]oxazol-2(3H)-one trifluoroacetate salt]: the IC50 was above 10000 nM.

Staying with this assay, now noted: tested under conditions described in Example 3 (IL-2 stimulated human primary T-cell proliferation); read-out: ability to inhibit JAK3 activity, IC50 range (Table V).
In the case of `CCOC(=O)N1CCN(c2ccc(Nc3ncc(C)c(Nc4ccc5oc(=O)[nH]c5c4)n3)cc2)CC1` [Compound I-344, N2-[4-(4-ethoxycarbonyl)piperazino]phenyl-5-methyl-N4-(2-oxo-2,3-dihydro-1,3-benzoxazol-5-yl)-2,4-pyrimidinediamine], the IC50 was below 500 nM.

For the molecule `Cc1cnc(Nc2ccc(F)c(F)c2)nc1Nc1ccc2oc(=O)[nH]c2c1` [Compound I-398, N2-(3,4-difluoro)phenyl-5-methyl-N4-(2-oxo-2,3-dihydro-1,3-benzoxazol-5-yl)-2,4-pyrimidinediamine], the IC50 was below 500 nM.

Consider `CCN1CCN(c2ccc(Nc3ncc(C)c(Nc4ccc5oc(=O)[nH]c5c4)n3)cc2Cl)CC1` [Compound I-278, N2-[3-chloro-4-(4-ethylpiperazino)]phenyl-5-methyl-N4-(2-oxo-2,3-dihydro-1,3-benzoxazol-5-yl)-2,4-pyrimidinediamine], for which the IC50 was below 500 nM.

Consider `CN1CCN(c2ccc(Nc3ncc(F)c(Nc4ccc5c(c4)n(C)c(=O)n5C)n3)cn2)CC1` [II-21, N4-(1,3-dimethylbenzimidazolin-2-on-5-yl)-N2-[2-(4-methylpiperazino)pyridin-5-yl]-5-fluoropyrimidine-2,4-diamine], for which the IC50 is 500 to 5000 nM.

As for `COc1cc(Nc2ncc(C)c(Nc3ccc4oc(=O)[nH]c4c3)n2)ccc1C#N` [Compound I-380, N2-(4-cyano-3-methoxy)phenyl-5-methyl-N4-(2-oxo-2,3-dihydro-1,3-benzoxazol-5-yl)-2,4-pyrimidinediamine], the IC50 is below 500 nM.

For the molecule `Cc1ccc(Nc2ncc(C)c(Nc3ccc4oc(=O)[nH]c4c3)n2)cc1Cl` [Compound I-364, N2-(3-chloro-4-methyl)phenyl-5-methyl-N4-(2-oxo-2,3-dihydro-1,3-benzoxazol-5-yl)-2,4-pyrimidinediamine], the IC50 is below 500 nM.

On to `Cn1c(=O)oc2ccc(Nc3nc(Nc4cccc(S(N)(=O)=O)c4)ncc3F)cc21` [Compound I-75, N2-((3-aminosulfonyl)phenyl)-N4-(3-methyl-2-oxo-2,3-dihydrobenzo[d]oxazol-5-yl)-5-fluoropyrimidine-2,4-diamine], for which the IC50 is below 500 nM.

For the molecule `COCCOc1cc(Nc2ncc(C)c(Nc3ccc4oc(=O)[nH]c4c3)n2)ccc1OC` [Compound I-292, N2-[4-methoxy-3-(2-methoxyethoxy)]phenyl-5-methyl-N4-(2-oxo-2,3-dihydro-1,3-benzoxazol-5-yl)-2,4-pyrimidinediamine], the IC50 was below 500 nM.

Regarding `Cc1cnc(Nc2cccc(S(=O)(=O)NC(C)(C)C)c2)nc1Nc1ccc2oc(=O)[nH]c2c1` [Compound I-25, N4-(benzo[d]oxazol-2(3H)-on-5-yl)-N2-((3-tert-butylaminosulfonyl)phenyl)-5-methylpyrimidine-2,4-diamine], the half-maximal inhibitory concentration (IC50) was below 500 nM.

As for `CN(c1ccc(Nc2ncc(F)c(Nc3ccc4c(c3)oc(=O)n4C)n2)cc1)S(C)(=O)=O` [Compound I-97, N2-((4-methylsulfonyl-N-methylamino)phenyl)-N4-(3-methyl-2-oxo-2,3-dihydrobenzo[d]oxazol-6-yl)-5-fluoropyrimidine-2,4-diamine], the IC50 was above 10000 nM.

For `Cc1cnc(Nc2ccc(F)c(NS(C)(=O)=O)c2)nc1Nc1ccc2oc(=O)[nH]c2c1` [Compound I-87, N2-((4-fluoro-3-methylsulfonylamino)phenyl)-N4-(2-oxo-2,3-dihydrobenzo[d]oxazol-5-yl)-5-methylpyrimidine-2,4-diamine], the IC50 is below 500 nM.

One may read the IC50 as the concentration needed to halve the response being measured.
